IC50 data for 15 compounds are collected here from patent US20110281869A1, “TETRAHYDROISOQUINOLINES AS ANTIMALARIAL AGENTS” (priority 2008, published 2011).

The test system of the first experiment is P. falciparum K1. In words: Plasmodium falciparum in vitro assay ([3H] hypoxanthine incorporation). The following applies: Plasmodium falciparum; erythrocytic stages, strain K1 resistant to chloroquine and pyrimethamine, human red cells; read-out: IC50 (nM) on K1. The experiment is classed as cell-based. Here is the method: In vitro antimalarial activity: Plasmodium falciparum in vitro assay In vitro activity against erythrocytic stages of P. falciparum is determined using a [^3H] hypoxanthine incorporation assay. One strain resistant to chloroquine and pyrimethamine (P. falciparum K1) is used in the assays, and all test compounds are compared for activity with the standard drugs chloroquine (sigma C6628) and artemisinin (sigma-36, 159-3). Compounds are diluted in DMSO to 1 mM and added to parasite cultures incubated in RPMI 1640 medium without hypoxanthine, supplemented with HEPES (5.94 g/L), NaHCO3 (2.1 g/L), neomycin (100 U/mL), Albumax (5 g/L) and washed human red cells at 2.5% hematocrit (0.3% parasitaemia). Seven serial doubling dilutions of each drug are prepared in 96-well microtitre plates and incubated in a humidifying atmosphere at 37° C.; 4% CO2, 3% O2, 93% N2.
After 48 h, 50 μl of [^3H] hypoxanthine (0.5 μCi) is added to each well of a plate. The plates are incubated for a further 24 h under the same conditions. The plates are then harvested with a Betaplate cell harvester (Wallac) and washed with distilled water. The dried filters are inserted into a plastic foil with 10 mL of scintillation fluid, and counted in a Betaplate liquid scintillation counter. IC50 values are calculated from sigmoidal inhibition curves using Microsoft Excel.
For orientation: IC50 means the concentration that gives 50% inhibition. Consider `CN1CCN(c2ccc(CN(C(=O)C=Cc3ccc(C(F)(F)F)cn3)[C@@H](Cc3ccccc3)C(=O)N3CCc4ccccc4C3)cc2)CC1` [Example 211, (S)—N-[1-Benzyl-2-(3,4-dihydro-1H-isoquinolin-2-yl)-2-oxo-ethyl]-N-[4-(4-methyl-piperazin-1-yl)-benzyl]-3-(5-trifluoromethyl-pyridin-2-yl)-acrylamide], for which the half-inhibitory concentration (IC50) came to 82 nM.
On the same count and under the same terms, in the case of `Cc1ccc(C=CC(=O)N(Cc2ccc(N3CCOCC3)cc2)[C@@H](Cc2ccccc2)C(=O)N2CCc3ccccc3C2)cn1` [Example 218, (S)—N-[1-Benzyl-2-(3,4-dihydro-1H-isoquinolin-2-yl)-2-oxo-ethyl]-3-(6-methyl-pyridin-3-yl)-N-(4-morpholin-4-yl-benzyl)-acrylamide] it was 31 nM.
Take `COc1ccc(C=CC(=O)N(Cc2ccc(N3CCOCC3)cc2)[C@@H](Cc2ccccc2)C(=O)N2CCc3ccccc3C2)cn1` [Example 220, (S)—N-[1-Benzyl-2-(3,4-dihydro-1H-isoquinolin-2-yl)-2-oxo-ethyl]-3-(6-methoxy-pyridin-3-yl)-N-(4-morpholin-4-yl-benzyl)-acrylamide]: the IC50 turned out to be 10 nM.
In the case of `Cc1noc(C)c1C=CC(=O)N(Cc1ccc(N2CCOCC2)cc1)[C@@H](Cc1ccccc1)C(=O)N1CCc2ccccc2C1` [Example 224, (S)—N-[1-Benzyl-2-(3,4-dihydro-1H-isoquinolin-2-yl)-2-oxo-ethyl]-3-(3,5-dimethyl-isoxazol-4-yl)-N-(4-morpholin-4-yl-benzyl)-acrylamide], the IC50 was found to be 18 nM.
Turning to `O=C([C@H](Cc1ccccc1)N(Cc1ccc(-c2cncnc2)cc1)C(=O)C=Cc1ccc(Cl)nc1)N1CCc2ccccc2C1` [Example 228, (S)—N-[1-Benzyl-2-(3,4-dihydro-1H-isoquinolin-2-yl)-2-oxo-ethyl]-3-(6-chloro-pyridin-3-yl)-N-(4-pyrimidin-5-yl-benzyl)-acrylamide], the IC50 stood at 8.5 nM.
On the same count and under the same terms, under `Cc1noc(C)c1C=CC(=O)N(Cc1ccc(-c2cncnc2)cc1)[C@@H](Cc1ccccc1)C(=O)N1CCc2ccccc2C1` [Example 235, (S)—N-[1-Benzyl-2-(3,4-dihydro-1H-isoquinolin-2-yl)-2-oxo-ethyl]-3-(3,5-dimethyl-isoxazol-4-yl)-N-(4-pyrimidin-5-yl-benzyl)-acrylamide] stands 26 nM.
Same read-out and setting: under `COc1ccc(C=CC(=O)N(Cc2ccc(-c3ccncc3)cc2)[C@@H](Cc2ccccc2)C(=O)N2CCc3ccccc3C2)nn1` [Example 239, (S)—N-[1-Benzyl-2-(3,4-dihydro-1H-isoquinolin-2-yl)-2-oxo-ethyl]-3-(6-methoxy-pyridazin-3-yl)-N-(4-pyridin-4-yl-benzyl)-acrylamide] stands 9 nM; under `Cc1noc(C)c1C=CC(=O)N(Cc1ccc(-c2ccncc2)cc1)[C@@H](Cc1ccccc1)C(=O)N1CCc2ccccc2C1` [Example 241, (S)—N-[1-Benzyl-2-(3,4-dihydro-1H-isoquinolin-2-yl)-2-oxo-ethyl]-3-(3,5-dimethyl-isoxazol-4-yl)-N-(4-pyridin-4-yl-benzyl)-acrylamide], 5 nM; under `Cn1ccc(C=CC(=O)N(Cc2ccc(-c3ccncc3)cc2)[C@@H](Cc2ccccc2)C(=O)N2CCc3ccccc3C2)n1` [Example 243, (S)—N-[1-Benzyl-2-(3,4-dihydro-1H-isoquinolin-2-yl)-2-oxo-ethyl]-3-(1-methyl-1H-pyrazol-3-yl)-N-(4-pyridin-4-yl-benzyl)-acrylamide], below 7.8 nM.
Regarding `Cc1ncc(C=CC(=O)N(Cc2ccc(-c3ccncc3)cc2)[C@@H](Cc2ccccc2)C(=O)N2CCc3ccccc3C2)n1C` [Example 246, (S)—N-[1-Benzyl-2-(3,4-dihydro-1H-isoquinolin-2-yl)-2-oxo-ethyl]-3-(2,3-dimethyl-3H-imidazol-4-yl)-N-(4-pyridin-4-yl-benzyl)-acrylamide], the half-inhibitory concentration (IC50) stood at 17 nM.
On the same count and under the same terms, in the case of `Cc1nc(C)c(C=CC(=O)N(Cc2ccc(-c3ccncc3)cc2)[C@@H](Cc2ccccc2)C(=O)N2CCc3ccccc3C2)s1` [Example 247, (S)—N-[1-Benzyl-2-(3,4-dihydro-1H-isoquinolin-2-yl)-2-oxo-ethyl]-3-(2,4-dimethyl-thiazol-5-yl)-N-(4-pyridin-4-yl-benzyl)-acrylamide] it was 4 nM; in that of `Cc1c(C=CC(=O)N(Cc2ccc(-c3ccncc3)cc2)[C@@H](Cc2ccccc2)C(=O)N2CCc3ccccc3C2)cnn1C` [Example 250, (S)—N-[1-Benzyl-2-(3,4-dihydro-1H-isoquinolin-2-yl)-2-oxo-ethyl]-3-(1,5-dimethyl-1H-pyrazol-4-yl)-N-(4-pyridin-4-yl-benzyl)-acrylamide], 2 nM; in that of `Cc1nc(C)c(C=CC(=O)N(Cc2ccc(N3CCOCC3)cc2)[C@@H](Cc2ccccc2)C(=O)N2CCc3ccccc3C2)s1` [Example 251, (S)—N-[1-Benzyl-2-(3,4-dihydro-1H-isoquinolin-2-yl)-2-oxo-ethyl]-3-(2,4-dimethyl-thiazol-5-yl)-N-(4-morpholin-4-yl-benzyl)-acrylamide], 42 nM.
On the same count and under the same terms, under `Cc1nc(C=CC(=O)N(Cc2ccc(-c3cncnc3)cc2)[C@@H](Cc2ccccc2)C(=O)N2CCc3ccccc3C2)c(C)o1` [Example 253, (S)—N-[1-Benzyl-2-(3,4-dihydro-1H-isoquinolin-2-yl)-2-oxo-ethyl]-3-(2,5-dimethyl-oxazol-4-yl)-N-(4-pyrimidin-5-yl-benzyl)-acrylamide] stands 70 nM.

The same experiment, now with this note: erythrocytic stages, strain K1 resistant to chloroquine and pyrimethamine, human red cells; read-out: IC50 (nM) on K1.
Regarding `O=C([C@H](Cc1ccccc1)N(Cc1ccc(-c2cc[n+]([O-])cc2)cc1)C(=O)C=Cc1ccc(C(F)(F)F)cc1)N1CCc2ccccc2C1` [Example 254, (S)—N-[1-Benzyl-2-(3,4-dihydro-1-H-isoquinolin-2-yl)-2-oxo-ethyl]-N-[4-(1-oxy-pyridin-4-yl)-benzyl]-3-(4-trifluoromethyl-phenyl)-acrylamide], the IC50 is below 7.8 nM.
